Assay results: publication PMC6599250, “Functional diversity of inhibitors tackling the differentiation blockage of MLL-rearranged leukemia” (Journal of Hematology & Oncology, 2019)
Like-named read-outs stand apart in the source and are kept apart here.

How the values were obtained:
Format in all cases: cell-based
SEM (MLL-AF4) cells = experiment: Cell proliferation (alamarBlue) SEM
Method: (§1) Cells were seeded in the optimal growth medium at 4000–5000 cells/well in a 96 MTP and cultured 18–24 h before inhibitor treatment.

MV4-11 (MLL-AF4) cells = experiment: Cell proliferation (alamarBlue) MV4-11; conditions: Homo sapiens
Method: as §1

HL-60 (MLL-WT) cells = experiment: Cell proliferation (alamarBlue) HL-60; conditions: for IC50: Homo sapiens, read-out: IC50 proliferation
Method: as §1

ML-2 (MLL-AF6) cells = experiment: Cell proliferation (alamarBlue) ML-2
Method: as §1

OCI-AML-5 (MLL-WT) cells = experiment: Cell proliferation (alamarBlue) OCI-AML-5; conditions: Homo sapiens
Method: as §1

[1] = system: MV4-11, MOLM-13 and HL-60 cells; experiment: Cell cycle analysis (PI, flow cytometry); conditions: 4 days of treatment (Figure S2)
Method: Cells were washed with PBS and fixed overnight at − 20 °C with 70% ethanol. Fixed cells were stained with PI solution (Sigma-Aldrich St. Louis, MO, USA) solution containing RNase A (Qiagen, Hilden, Germany). Fluorescence was measured with FACS Canto II (BD Biosciences, Heidelberg, Germany) flow cytometer and data was analyzed with FACSDiva software.

OCI-AML-3 (MLL-WT) cells = experiment: Cell proliferation (alamarBlue) OCI-AML-3; conditions: Homo sapiens
Method: as §1

[2] = system: OCI-AML-2 (MLL-AF9) cells; experiment: Cell proliferation (alamarBlue) OCI-AML-2; conditions: Homo sapiens
Method: as §1

MOLM-13 (MLL-AF9) cells = experiment: Cell proliferation (alamarBlue) MOLM-13; conditions: Homo sapiens
Method: as §1

EOL-1 (MLL-TD) cells = experiment: Cell proliferation (alamarBlue) EOL-1; conditions: Homo sapiens
Method: as §1

MOLM-14 (MLL-AF9) cells = experiment: Cell proliferation (alamarBlue) MOLM-14; conditions: Homo sapiens
Method: as §1

HL-60 cells = experiment: CD11b protein expression by flow cytometry, HL-60; conditions: non-fused HL-60 cell line, 4 and 7 days of treatment
Method: (§2) Four thousand cells per well were seeded 24 h before they were treated with the indicated inhibitor in a 96 MTP. After 4 or 7 days of treatment, cells were washed with PBS and stained with CD11b - APC (BioLegend, San Diego, California, USA) and DAPI (Thermo Fisher Scientific, Waltham, Massachusetts, USA) or AnnexinV – FITC (BioLegend, San Diego, California, USA) and PI solution (Sigma-Aldrich St. Louis, Missouri, USA) using the FACS Canto II (BD Biosciences, Heidelberg, Germany) and data was analyzed with FACSDiva software.

[3] = system: MLL-fused cell lines (MV4-11, MOLM-13); experiment: CD11b protein expression by flow cytometry, MLL-fused lines; conditions: 4 and 7 days of treatment
Method: as §2

RS4;11 (MLL-AF4) cells = experiment: Cell proliferation (alamarBlue) RS4;11; conditions: Homo sapiens, RS4-11, read-out: IC50 proliferation, RS4;11 (MLL-AF4)
Method: as §1

KOPN-8 (MLL-ENL) cells = experiment: Cell proliferation (alamarBlue) KOPN-8; conditions: Homo sapiens
Method: as §1

NOMO-1 (MLL-AF9) cells = experiment: Cell proliferation (alamarBlue) NOMO-1; conditions: Homo sapiens
Method: as §1

Jurkat (MLL-WT) cells = experiment: Cell proliferation (alamarBlue) Jurkat; conditions: Homo sapiens
Method: as §1

[4] = system: selected MLL-fused models; experiment: Cell proliferation, AML/ALL panel; conditions: specifically in selected MLL-fused models (Fig. 2a); read-out: proliferation IC50 (significant effects)
Method: as §1

With `Cc1c(CN2CCC3(CC2)CN(c2ncnc4sc(CC(F)(F)F)cc24)C3)ccc2c1cc(C#N)n2CC(N)=O` [BAY-155] the IC50 (SEM (MLL-AF4) cells; read-out: IC50 proliferation, SEM (MLL-AF4), D1) was > 10 µM, the IC50 (SEM (MLL-AF4) cells; read-out: IC50 proliferation, SEM (MLL-AF4), D4) was 0.66 µM and the IC50 (SEM (MLL-AF4) cells; read-out: IC50 proliferation, SEM (MLL-AF4), D7) was 0.79 µM. The IC50 (MV4-11 (MLL-AF4) cells; MV4-11, read-out: IC50 proliferation, MV4-11 (MLL-AF4), D1) was > 10 µM, the IC50 (MV4-11 (MLL-AF4) cells; MV4-11, read-out: IC50 proliferation, MV4-11 (MLL-AF4), D4) was 0.09 µM and the IC50 (MV4-11 (MLL-AF4) cells; MV4-11, read-out: IC50 proliferation, MV4-11 (MLL-AF4), D7) was 0.03 µM. For the same compound, the “anti-proliferation effect in non-fused HL-60” value (HL-60 (MLL-WT) cells; HL-60, 4 days of treatment (Fig. 1a)) was “only affected with the 10 μM treatment”, the IC50 (HL-60 (MLL-WT) cells; HL-60, 24 h) was > 10 µM and the IC50 (HL-60 (MLL-WT) cells; HL-60, 96 h) was 9.04 µM. The IC50 (HL-60 (MLL-WT) cells; HL-60, 168 h) was > 10 µM, the IC50 (ML-2 (MLL-AF6) cells; read-out: IC50 proliferation, ML-2 (MLL-AF6), D1) was > 10 µM and the IC50 (ML-2 (MLL-AF6) cells; read-out: IC50 proliferation, ML-2 (MLL-AF6), D4) was > 10 µM. The IC50 (ML-2 (MLL-AF6) cells; read-out: IC50 proliferation, ML-2 (MLL-AF6), D7) was > 10 µM, the IC50 (OCI-AML-5 (MLL-WT) cells; OCI-AML-5, read-out: IC50 proliferation, OCI-AML-5 (MLL-WT), D1) was > 10 µM and the IC50 (OCI-AML-5 (MLL-WT) cells; OCI-AML-5, read-out: IC50 proliferation, OCI-AML-5 (MLL-WT), D4) was > 10 µM. The IC50 (OCI-AML-5 (MLL-WT) cells; OCI-AML-5, read-out: IC50 proliferation, OCI-AML-5 (MLL-WT), D7) was 8.56 µM, the “cell cycle effect” value [1] was “decrease of cells in S and G2/M phase with increasing concentrations” and the IC50 (OCI-AML-3 (MLL-WT) cells; OCI-AML-3, read-out: IC50 proliferation, OCI-AML-3 (MLL-WT), D1) was > 10 µM. The IC50 (OCI-AML-3 (MLL-WT) cells; OCI-AML-3, read-out: IC50 proliferation, OCI-AML-3 (MLL-WT), D4) was 1.37 µM, the IC50 (OCI-AML-3 (MLL-WT) cells; OCI-AML-3, read-out: IC50 proliferation, OCI-AML-3 (MLL-WT), D7) was 1.56 µM and the IC50 ([2]; OCI-AML2, read-out: IC50 proliferation, OCI-AML-2 (MLL-AF9), D1) was > 10 µM. For the same compound, the IC50 ([2]; OCI-AML2, read-out: IC50 proliferation, OCI-AML-2 (MLL-AF9), D4) was 8.26 µM, the IC50 ([2]; OCI-AML2, read-out: IC50 proliferation, OCI-AML-2 (MLL-AF9), D7) was 9.15 µM and the IC50 (MOLM-13 (MLL-AF9) cells; MOLM-13, read-out: IC50 proliferation, MOLM-13 (MLL-AF9), D1) was > 10 µM. The IC50 (MOLM-13 (MLL-AF9) cells; MOLM-13, read-out: IC50 proliferation, MOLM-13 (MLL-AF9), D4) was 0.14 µM, the IC50 (MOLM-13 (MLL-AF9) cells; MOLM-13, read-out: IC50 proliferation, MOLM-13 (MLL-AF9), D7) was 0.28 µM and the IC50 (EOL-1 (MLL-TD) cells; EOL1, read-out: IC50 proliferation, EOL-1 (MLL-TD), D1) was 6.83 µM. For the same compound, the IC50 (EOL-1 (MLL-TD) cells; EOL1, read-out: IC50 proliferation, EOL-1 (MLL-TD), D4) was 1.62 µM, the IC50 (EOL-1 (MLL-TD) cells; EOL1, read-out: IC50 proliferation, EOL-1 (MLL-TD), D7) was 1.14 µM and the IC50 (MOLM-14 (MLL-AF9) cells; MOLM-14, read-out: IC50 proliferation, MOLM-14 (MLL-AF9), D1) was 6.89 µM. For the same compound, the IC50 (MOLM-14 (MLL-AF9) cells; MOLM-14, read-out: IC50 proliferation, MOLM-14 (MLL-AF9), D4) was 0.31 µM, the IC50 (MOLM-14 (MLL-AF9) cells; MOLM-14, read-out: IC50 proliferation, MOLM-14 (MLL-AF9), D7) was 0.23 µM and the “CD11b level” value (HL-60 cells) was “did not increase CD11b level”. The “CD11b protein level” value [3] was “increased CD11b protein level in a dose and time-dependent manner”, the IC50 (RS4;11 (MLL-AF4) cells; D1) was > 10 µM and the IC50 (RS4;11 (MLL-AF4) cells; D4) was > 10 µM. The IC50 (RS4;11 (MLL-AF4) cells; D7) was 5.99 µM, the IC50 (KOPN-8 (MLL-ENL) cells; KOPN-8, read-out: IC50 proliferation, KOPN-8 (MLL-ENL), D1) was > 10 µM and the IC50 (KOPN-8 (MLL-ENL) cells; KOPN-8, read-out: IC50 proliferation, KOPN-8 (MLL-ENL), D4) was 6.34 µM. The IC50 (KOPN-8 (MLL-ENL) cells; KOPN-8, read-out: IC50 proliferation, KOPN-8 (MLL-ENL), D7) was 1.89 µM, the IC50 (NOMO-1 (MLL-AF9) cells; NOMO-1, read-out: IC50 proliferation, NOMO-1 (MLL-AF9), D1) was > 10 µM and the IC50 (NOMO-1 (MLL-AF9) cells; NOMO-1, read-out: IC50 proliferation, NOMO-1 (MLL-AF9), D4) was 0.15 µM. The IC50 (NOMO-1 (MLL-AF9) cells; NOMO-1, read-out: IC50 proliferation, NOMO-1 (MLL-AF9), D7) was 0.07 µM, the IC50 (Jurkat (MLL-WT) cells; read-out: IC50 proliferation, Jurkat (MLL-WT), D1) was > 10 µM and the IC50 (Jurkat (MLL-WT) cells; read-out: IC50 proliferation, Jurkat (MLL-WT), D4) was 9 µM. For the same compound, the IC50 (Jurkat (MLL-WT) cells; read-out: IC50 proliferation, Jurkat (MLL-WT), D7) was 9.09 µM and the IC50 [4] was < 1 µM.
